Experimental data from PMC4774972, “Activity and Predicted Nephrotoxicity of Synthetic Antibiotics Based on Polymyxin B” (Journal of Medicinal Chemistry, 2016).
≈ marks a conversion by molar mass, not a printed value. Where two headings read alike, the source gives them in different places. Numbered stars: 1 amine (or outer) side, 2 acyl side, 3 side chain; on linkers, the order of the positions; unused ones are H or OH. Bridge positions count the residues as written; N and C are the ends. Square brackets hold non-standard residues; d marks the D form. Peptide text beside a SMILES is read from it. * marks the point of attachment. Benzoyl(4-Ph) = O=C(c1ccc(-c2ccccc2)cc1)*; X1 = c1ccc(-c2ccc(N*)cc2)cc1; dDab = NCC[C@@H](N)C(=O)O; Octanoyl = CCCCCCCC(=O)*; Dab = NCC[C@H](N)C(=O)O; CO = O=C([*:1])[*:2]

Columns and labels:
HepG2 = details: CC50 HepG2 (µM)
[1] = test system: K. pneumoniae CI 138-16357-20362, PmxR; experiment: microbe, parasite or virus in culture; type: cell-based, Klebsiella pneumoniae; details: carbapenem & polymyxin resistant clinical isolate; MHB, 5 × 10^5 CFU/mL, 18 h at 37 °C
Description: (§1) Bacteria were either obtained from American Type Culture Collection (ATCC; Manassas, VA, USA) or independent academic clinical isolate collections, as listed in Table S2. Bacteria were cultured in nutrient broth (NB; Bacto Laboratories, catalog no. 234000) or Muller Hinton broth (MHB; Bacto Laboratories, catalog no. 211443) at 37 °C overnight with shaking (∼180 rpm). A sample of each culture was then diluted 50-fold in fresh MHB and incubated at 37 °C for 1.5–3 h with shaking (∼180 rpm). Compound stock solutions were prepared as 0.64 or 2.56 mg/mL in water. The compounds, at twice the final desired concentration, were serially diluted 2-fold across the wells of 96-well plates (Polystyrene, Corning, catalogue No. 3370). Mid log phase bacterial cultures (after 1.5–3 h incubation) were diluted to a final concentration of 5 × 10^5 colony forming units (CFU)/mL, and 50 μL was added to each well giving a final compound concentration range of 32 μg/mL to 0.015 μg/mL (128–0.06 μg/mL for colistin and polymyxin B against the polymyxin resistant clinical isolates). MICs were determined visually after 18 h of incubation at 37 °C, with the MIC defined as the lowest compound concentration at which no bacterial growth was visible.
(§2) Table S2. Bacterial strains used for Minimum Inhibitory Concentration (MIC) […]
(§3) Organism Strain Strain description Strain Source
(§4) Escherichia coli ATCC 25922 FDA strain Seattle 1946 ATCC
(§5) Klebsiella pneumoniae ATCC 13883 Control strain ATCC
(§6) Klebsiella pneumoniae ATCC 700603 Multi-drug resistant ATCC
(§7) Klebsiella pneumoniae BAA-2146 Metallo-beta-lactamase- ATCC
(§8) Acinetobacter baumannii ATCC 19606 Type strain ATCC
(§9) Pseudomonas aeruginosa ATCC 27853 Type strain ATCC
(§10) Pseudomonas aeruginosa FADDI-PA070 Clinical isolate, Nation and Li labs, polymyxin resistant Monash University
(§11) Clinical isolate, Wang Hengzhuang, Pseudomonas aeruginosa PA9704 polymyxin resistant University Hospital of […]
(§12) Ptyela Clinical isolate, Ilias Karaiskos and Acinetobacter baumannii Carbapenem & Helen Giamarellou
(§13) Clinical isolate, Medicine, Hygeia
(§14) Klebsiella pneumoniae Koprana Carbapenem, & General Hospital, […]
(§15) Clinical isolate, (Instituto Dante […]
(§16) polymyxin resistant Cardiologia, São […]

[2] = test system: K. pneumoniae CI Koprana 100650661:1, PmxR; experiment: microbe, parasite or virus in culture; type: cell-based, Klebsiella pneumoniae; details: carbapenem & polymyxin resistant clinical isolate; MHB, 5 × 10^5 CFU/mL, 18 h at 37 °C
Description: as §1, §2, §3, §4, §5, §6, §7, §8, §9, §10, §11, §12, §13, §14, §15, §16

[3] = test system: S. aureus ATCC 25923, MSSA; details: MIC S. aureus ATCC 25923, MSSA (µg/mL)
[4] = test system: A. baumannii CI Ptyela 100734512:2, PmxR; details: MIC A. baumannii CI Ptyela 100734512:2, PmxR (µg/mL)
[5] = test system: P. aeruginosa PA9704, PmxR; details: MIC P. aeruginosa PA9704, PmxR (µg/mL)
[6] = test system: K. pneumoniae CI 138-16357-20362, PmxR; details: MIC K. pneumoniae CI 138-16357-20362, PmxR (µg/mL)
A. baumannii ATCC 19606 = details: MIC A. baumannii ATCC 19606 (µg/mL)
[7] = test system: P. aeruginosa FADDI-PA070, PmxR; details: MIC P. aeruginosa FADDI-PA070, PmxR (µg/mL)
[8] = test system: K. pneumoniae CI Koprana 100650661:1, PmxR; details: MIC K. pneumoniae CI Koprana 100650661:1, PmxR (µg/mL)
[9] = test system: primary human renal proximal tubule epithelial (hPT) cells; experiment: Nephrotoxicity assay, LDH release; type: cell-based; details: for LDH release CC50: primary human kidney cells
Source text: (§17) Primary human renal proximal tubule epithelial (hPT) cells were isolated and used for in vitro prediction of drug-induced nephrotoxicity[63],[64],[69] by measuring the release of metabolism enzymes, LDH and GGT, as previously described.[70]

[10] = test system: primary human renal proximal tubule epithelial (hPT) cells; experiment: Nephrotoxicity assay, GGT release; type: cell-based; details: for GGT release CC50: primary human kidney cells
Source text: as §17

[11] = test system: S. aureus ATCC 25923, MSSA; experiment: microbe, parasite or virus in culture; type: cell-based, Staphylococcus aureus
Description: as §1, §2, §3, §4, §5, §6, §7, §8, §9, §10, §11, §12, §13, §14, §15, §16

HepG2 cells = experiment: Cytotoxicity assay (resazurin assay); type: cell-based, human; details: 4000 cells/well, 24 h incubation with compound, fluorescence 560/590
Description: Cytotoxicity to HEK293 and HepG2 cells was determined using the resazurin assay.[67],[68] […] Compounds were then added into each well. After 24 h incubation, 5 μM resazurin was added per well and incubated at 37 °C for 2 h. Fluorescence intensity was then read using a Polarstar Omega with excitation/emission 560/590. The data were then analyzed using GraphPad Prism 6 software. CC50 values were determined using GraphPad Prism 6 software (Inc. La Jolla, CA).

[12] = test system: A. baumannii CI Ptyela 100734512:2, PmxR; experiment: microbe, parasite or virus in culture; type: cell-based, Acinetobacter baumannii; details: carbapenem & polymyxin resistant clinical isolate; MHB, 5 × 10^5 CFU/mL, 18 h at 37 °C
Description: as §1, §2, §3, §4, §5, §6, §7, §8, §9, §10, §11, §12, §13, §14, §15, §16

[13] = at 100 μg/mL in the primary kidney cells

SMILES | CC50 (HepG2) [µM] | MIC K. pneumoniae CI 138-16357-20362, PmxR [1] [µg/mL] | MIC K. pneumoniae CI Koprana 100650661:1, PmxR [2] [µg/mL] | MIC [3] [µg/mL] | MIC [4] [µg/mL] | MIC [5] [µg/mL] | MIC [6] [µg/mL] | MIC (A. baumannii ATCC 19606) [µg/mL] | MIC [7] [µg/mL] | MIC [8] [µg/mL] | release of LDH [9, 13] | LDH release CC50 [9] [µg/mL] | release of GGT [10, 13] | GGT release CC50 [10] [µg/mL] | MIC S. aureus ATCC 25923, MSSA ([11]; ATCC 25923, 18 h) [µg/mL] | HepG2 - CC50 (HepG2 cells) [µM] | MIC A. baumannii CI Ptyela 100734512:2, PmxR [12] [µg/mL] | MIC ([11]; Staphylococcus aureus, 18 h, read-out: MIC S. aureus ATCC 25923, MSSA) [µg/mL]
CCCCCCCC(=O)NCC(=O)N[C@@H](CCN)C(=O)N[C@H](C(=O)N[C@H]1CCNC(=O)[C@H]([C@@H](C)O)NC(=O)[C@H](CCN)NC(=O)[C@H](CCN)NC(=O)[C@H](CC(C)C)NC(=O)[C@@H](Cc2ccccc2)NC(=O)[C@H](CCN)NC1=O)[C@@H](C)O [Compound 41] (Octanoyl-G[Dab]T[Dab][Dab][dF]L[Dab][Dab]T; lactam 4-C) | > 300 | >32 | >32 | > 32 | > 32 | > 32 | > 32 | > 32 | > 32 | > 32 |  |  |  |  |  |  |  | 
CC(C)C[C@@H]1NC(=O)[C@@H](Cc2ccccc2)NC(=O)[C@H](CCN)NC(=O)[C@@H](NC(=O)[C@H](CCN)NC(=O)[C@@H](NC(=O)[C@H](CCN)NC(=O)c2ccc(-c3ccccc3)cc2)[C@@H](C)O)CCNC(=O)[C@H]([C@@H](C)O)NC(=O)[C@H](CCN)NC(=O)[C@H](CCN)NC1=O [Compound 10] ({Benzoyl(4-Ph)}-[Dab]T[Dab][Dab][Dab][dF]L[Dab][Dab]T; lactam 4-C) | 298 | >32 | >32 | > 32 |  | > 32 | > 32 |  |  | > 32 | almost no release | >128 | almost no release | >128 |  |  |  | 
CC(C)C[C@@H]1NC(=O)[C@@H](Cc2ccccc2)NC(=O)[C@H](CCN)NC(=O)[C@@H](NC(=O)[C@H](CCN)NC(=O)[C@@H](NC(=O)[C@H](CCN)NC(=O)Nc2ccc(-c3ccccc3)cc2)[C@@H](C)O)CCNC(=O)[C@H]([C@@H](C)O)NC(=O)[C@H](CCN)NC(=O)[C@H](CCN)NC1=O [Compound 15] ({X1-CO}-[Dab]T[Dab][Dab][Dab][dF]L[Dab][Dab]T; lactam 4-C) | 316 | >32 |  |  |  |  | > 32 |  |  |  |  | >128 |  | >128 |  |  |  | 
CCCCCCCC(=O)N[C@@H](CCN)C(=O)N[C@H](C(=O)N[C@H](CCN)C(=O)N[C@H]1CCNC(=O)[C@H]([C@@H](C)O)NC(=O)[C@H](CCN)NC(=O)[C@H](CCN)NC(=O)[C@H](CC(C)C)NC(=O)[C@@H](Cc2ccccc2)NC(=O)[C@H](CCN)NC1=O)[C@@H](C)O [Compound 36] (Octanoyl-[Dab]T[dDab][Dab][Dab][dF]L[Dab][Dab]T; lactam 4-C) | > 300 | >32 | >32 | > 32 | > 32 |  | > 32 |  | > 32 | > 32 |  |  |  |  | >32 | >300 | >32 | 
CN[C@@H](CC(C)C)C(=O)N[C@H]1C(=O)N[C@@H](CC(N)=O)C(=O)N[C@H]2C(=O)N[C@H]3C(=O)N[C@H](C(=O)N[C@@H](C(=O)O)c4cc(O)cc(O)c4-c4cc3ccc4O)[C@H](O)c3ccc(c(Cl)c3)Oc3cc2cc(c3O[C@H]2O[C@@H](CO)[C@H](O)[C@@H](O)[C@@H]2O[C@@H]2C[C@@](C)(N)[C@@H](O)[C@@H](C)O2)Oc2ccc(cc2Cl)[C@H]1O [Vancomycin, reference compound] |  |  |  |  |  |  |  |  |  |  |  |  |  |  |  | >300 |  | 2 (≈ 1.38 µM)
